# According to ChEMBL document CHEMBL1909046, “DrugMatrix in vitro pharmacology data”:
# Key:
# Mu-type opioid receptor = Mu-type opioid receptor (Homo sapiens, UniProt P35372); assay: DRUGMATRIX: Opiate mu (OP3, MOP) radioligand binding (ligand: [3H] Diprenorphine); format: cell membranes, CHO-K1, Membrane; details: cho-k1; Not Active = under 50% inhibition at 10 µM
# [1] = DRUGMATRIX: Atrial Natriuretic Factor (ANF) radioligand binding (ligand: [125I] ANF (rat)); format: cell membranes, Cavia porcellus, Dunkin-Hartley, Adrenal gland, Membrane; details: Not Active = under 50% inhibition at 10 µM
# [2] = target: C-C chemokine receptor type 5 (Homo sapiens, UniProt P51681); format: cell membranes, Membrane; details: hek293; further: in other assays of this panel Not Active means under 50% inhibition at 10 µM
# Sequence of C-C chemokine receptor type 5 (P51681 whole entry): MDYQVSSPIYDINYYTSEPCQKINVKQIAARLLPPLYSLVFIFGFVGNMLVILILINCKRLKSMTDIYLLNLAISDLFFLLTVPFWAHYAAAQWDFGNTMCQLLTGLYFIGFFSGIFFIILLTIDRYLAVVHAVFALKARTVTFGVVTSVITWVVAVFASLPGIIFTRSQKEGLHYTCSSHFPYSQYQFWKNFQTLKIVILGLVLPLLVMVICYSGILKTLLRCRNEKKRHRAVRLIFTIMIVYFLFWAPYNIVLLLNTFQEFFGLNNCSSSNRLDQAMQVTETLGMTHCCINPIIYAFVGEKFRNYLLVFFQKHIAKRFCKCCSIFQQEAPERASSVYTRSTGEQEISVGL
# [3] = target: Aldo-keto reductase family 1 member B1 (Rattus norvegicus, UniProt P07943); format: tissue-based, Lens of camera-type eye;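 further: inhibition of aldose reductase enzyme activity, measured with DL-glyceraldehyde as the substrate; in other assays of this panel Not Active means under 50% inhibition at 10 µM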
# [4] = DRUGMATRIX: Serotonin (5-Hydroxytryptamine) 5-HT3 radioligand binding (ligand: [3H] GR-65630); format: cell membranes, Membrane; details: hek293; Not Active = under 50% inhibition at 10 µM
# [5] = target: Sigma non-opioid intracellular receptor 1 (Homo sapiens, UniProt Q99720); assay: DRUGMATRIX: Sigma1 radioligand binding (ligand: [3H] Haloperidol); format: cell membranes, Jurkat, Membrane; details: Not Active = under 50% inhibition at 10 µM; for Ki: read-out: Ki
# Sequence of Sigma non-opioid intracellular receptor 1 (Q99720 whole entry): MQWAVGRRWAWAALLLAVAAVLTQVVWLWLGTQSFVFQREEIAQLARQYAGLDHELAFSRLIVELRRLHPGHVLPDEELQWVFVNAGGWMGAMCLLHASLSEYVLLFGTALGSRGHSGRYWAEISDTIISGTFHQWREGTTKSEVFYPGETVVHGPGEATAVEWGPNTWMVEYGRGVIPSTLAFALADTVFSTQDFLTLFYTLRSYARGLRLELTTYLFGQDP
# [6] = target: T1, Neuropeptide Y receptor type 2 (Homo sapiens, UniProt P49146); format: cell membranes, KAN-TS, Membrane; details: kan-ts; further: in other assays of this panel Not Active means under 50% inhibition at 10 µM
# T1 sequence (P49146 whole entry): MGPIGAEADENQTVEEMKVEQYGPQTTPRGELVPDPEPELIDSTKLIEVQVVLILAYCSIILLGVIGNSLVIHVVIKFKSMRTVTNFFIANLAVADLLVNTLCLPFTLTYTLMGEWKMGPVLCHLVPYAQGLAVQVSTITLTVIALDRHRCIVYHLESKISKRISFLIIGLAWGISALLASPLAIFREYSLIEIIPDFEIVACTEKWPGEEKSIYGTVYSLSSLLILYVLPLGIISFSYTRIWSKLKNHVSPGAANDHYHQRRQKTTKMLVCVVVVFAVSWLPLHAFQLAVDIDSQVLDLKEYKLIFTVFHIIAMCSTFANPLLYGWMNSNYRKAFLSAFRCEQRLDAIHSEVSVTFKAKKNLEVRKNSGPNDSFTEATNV
# Sequence of Mu-type opioid receptor (P35372 whole entry): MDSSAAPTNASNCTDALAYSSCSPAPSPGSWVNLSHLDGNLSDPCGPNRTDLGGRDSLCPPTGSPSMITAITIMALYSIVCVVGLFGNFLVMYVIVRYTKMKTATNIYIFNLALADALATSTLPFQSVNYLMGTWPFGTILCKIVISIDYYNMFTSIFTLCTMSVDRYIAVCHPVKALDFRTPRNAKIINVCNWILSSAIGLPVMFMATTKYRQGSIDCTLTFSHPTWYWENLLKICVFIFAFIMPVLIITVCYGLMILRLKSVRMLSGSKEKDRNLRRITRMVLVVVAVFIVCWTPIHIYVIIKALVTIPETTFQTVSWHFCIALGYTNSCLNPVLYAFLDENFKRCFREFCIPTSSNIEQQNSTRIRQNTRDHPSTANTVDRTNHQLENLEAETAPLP
Structure (SMILES),IC50 (Mu-type opioid receptor),IC50 [1],Ki [1],IC50 [2],IC50 [3],IC50 [4],Ki [4],IC50 ([5]; jurkat),IC50 [6],IC50 ([5]; read-out: IC50),Ki [5]
Cc1cc2c(OCC(CNC(C)(C)C)OC(=O)c3ccccc3)cccc2[nH]1 (stereo not drawn) [BOPINDOLOL],Not Active,Not Active,Not Active,Not Active,Not Active,Not Active,Not Active,Not Active,Not Active,–,–
Brc1c(NC2=NCCN2)ccc2nccnc12 [BRIMONIDINE],Not Active,Not Active,Not Active,Not Active,Not Active,Not Active,Not Active,Not Active,Not Active,–,–
CN(C)[C@@H]1C(O)=C(C(N)=O)C(=O)[C@@]2(O)C(O)=C3C(=O)c4c(O)ccc(Cl)c4[C@@](C)(O)[C@H]3C[C@@H]12 [CHLORTETRACYCLINE],Not Active,Not Active,Not Active,Not Active,Not Active,Not Active,Not Active,Not Active,Not Active,–,–
CN/C(=N\CCSCc1nc[nH]c1C)NC#N [CIMETIDINE],Not Active,Not Active,Not Active,Not Active,Not Active,Not Active,Not Active,Not Active,Not Active,–,–
COc1cc(N)c(Cl)cc1C(=O)NC1CCN(CCCOc2ccc(F)cc2)CC1OC (stereo not drawn) [CISAPRIDE],Not Active,Not Active,Not Active,Not Active,Not Active,Not Active,Not Active,–,Not Active,994 nM,418 nM
CCC(=O)O[C@]1(C(=O)CCl)[C@@H](C)C[C@H]2[C@@H]3CCC4=CC(=O)C=C[C@]4(C)[C@@]3(F)[C@@H](O)C[C@@]21C [CLOBETASOL PROPIONATE],Not Active,Not Active,Not Active,Not Active,Not Active,Not Active,Not Active,Not Active,Not Active,–,–
O=C1CN=C(c2ccccc2Cl)c2cc([N+](=O)[O-])ccc2N1 [CLONAZEPAM],Not Active,Not Active,Not Active,Not Active,Not Active,Not Active,Not Active,Not Active,Not Active,–,–
Nc1ccn([C@@H]2O[C@H](CO)[C@@H](O)[C@@H]2O)c(=O)n1 [CYTARABINE],Not Active,Not Active,Not Active,Not Active,Not Active,Not Active,Not Active,Not Active,Not Active,–,–
C[C@@H]1C[C@H]2[C@@H]3CCC4=CC(=O)C=C[C@]4(C)[C@@]3(F)[C@@H](O)C[C@]2(C)[C@H]1C(=O)CO [DESOXIMETASONE],Not Active,Not Active,Not Active,Not Active,Not Active,Not Active,Not Active,Not Active,Not Active,–,–
C[C@@H]1C[C@H]2[C@@H]3CCC4=CC(=O)C=C[C@]4(C)[C@@]3(F)[C@@H](O)C[C@]2(C)[C@@]1(O)C(=O)CO [DEXAMETHASONE],Not Active,Not Active,Not Active,Not Active,Not Active,Not Active,Not Active,Not Active,Not Active,–,–
CN(C)CC[C@@H](c1ccc(Cl)cc1)c1ccccn1 [DEXCHLORPHENIRAMINE],Not Active,Not Active,Not Active,Not Active,Not Active,Not Active,Not Active,–,Not Active,1660 nM,697 nM
C[C@@H]1CC[C@@]2(OC1)O[C@H]1[C@@H](O)[C@H]3[C@@H]4CC[C@H]5C[C@@H](O[C@@H]6O[C@H](CO)[C@H](O[C@@H]7O[C@H](CO)C(O)[C@H](O[C@@H]8OC[C@@H](O)[C@H](O)[C@H]8O)[C@H]7O[C@@H]7O[C@H](CO)[C@H](O)[C@H](O[C@@H]8O[C@H](CO)[C@@H](O)[C@H](O)[C@H]8O)[C@H]7O)[C@H](O)[C@H]6O)[C@H](O)C[C@]5(C)[C@H]4CC[C@]3(C)[C@H]1[C@@H]2C (stereo partly drawn) [DIGITONIN],Not Active,Not Active,Not Active,Not Active,Not Active,Not Active,Not Active,Not Active,Not Active,–,–
OC(CCCN1CCCCC1)(c1ccccc1)c1ccccc1 [DIPHENIDOL],Not Active,Not Active,Not Active,Not Active,Not Active,Not Active,Not Active,–,Not Active,256 nM,108 nM
C[C@H]1O[C@@H](n2cc(F)c(=O)[nH]c2=O)[C@H](O)[C@@H]1O [DOXIFLURIDINE],Not Active,Not Active,Not Active,Not Active,Not Active,Not Active,Not Active,Not Active,Not Active,–,–
Cn1c(=O)c2c(ncn2CC(O)CO)n(C)c1=O (stereo not drawn) [DYPHYLLINE],Not Active,Not Active,Not Active,Not Active,Not Active,Not Active,Not Active,Not Active,Not Active,–,–
CC[C@H]1CN2CCc3cc(OC)c(OC)cc3[C@@H]2C[C@@H]1C[C@H]1NCCc2cc(OC)c(OC)cc21 [EMETINE],Not Active,Not Active,Not Active,Not Active,Not Active,Not Active,Not Active,Not Active,Not Active,–,–
COC(=O)CCc1ccc(OCC(O)CNC(C)C)cc1 (stereo not drawn) [ESMOLOL],Not Active,Not Active,Not Active,Not Active,Not Active,Not Active,Not Active,Not Active,Not Active,–,–
CCC1(C)CC(=O)NC1=O (stereo not drawn) [ETHOSUXIMIDE],Not Active,Not Active,Not Active,Not Active,Not Active,Not Active,Not Active,Not Active,Not Active,–,–
C#C[C@]1(OC(C)=O)CC[C@H]2[C@@H]3CCC4=C[C@@H](OC(C)=O)CC[C@@H]4[C@H]3CC[C@@]21C [ETHYNODIOL DIACETATE],Not Active,Not Active,Not Active,Not Active,Not Active,Not Active,Not Active,Not Active,Not Active,–,–
COc1cc([C@@H]2c3cc4c(cc3[C@@H](O[C@@H]3O[C@@H]5CO[C@@H](C)O[C@H]5[C@H](O)[C@H]3O)[C@H]3COC(=O)[C@H]23)OCO4)cc(OC)c1O [ETOPOSIDE],Not Active,Not Active,Not Active,Not Active,Not Active,Not Active,Not Active,Not Active,Not Active,–,–
C=CCc1ccc(O)c(OC)c1 [EUGENOL],Not Active,Not Active,Not Active,Not Active,Not Active,Not Active,Not Active,Not Active,Not Active,–,–
CC(C(=O)O)c1cccc(Oc2ccccc2)c1 (stereo not drawn) [FENOPROFEN],Not Active,Not Active,Not Active,Not Active,Not Active,Not Active,Not Active,Not Active,Not Active,–,–
CC(C)(C)NC(=O)[C@H]1CC[C@H]2[C@@H]3CC[C@H]4NC(=O)C=C[C@]4(C)[C@H]3CC[C@]12C [FINASTERIDE],Not Active,Not Active,Not Active,Not Active,Not Active,Not Active,Not Active,Not Active,Not Active,–,–
COc1ccc2c3c1O[C@H]1C[C@@H](O)C=C[C@@]31CCN(C)C2 [GALANTAMINE],Not Active,Not Active,Not Active,Not Active,Not Active,Not Active,Not Active,Not Active,Not Active,–,–
Nc1ccn([C@@H]2O[C@H](CO)[C@@H](O)C2(F)F)c(=O)n1 [GEMCITABINE],Not Active,Not Active,Not Active,Not Active,Not Active,Not Active,Not Active,Not Active,Not Active,–,–
